US20170325452A1, “Active compound combinations” (BAYER CROPSCIENCE AKTIENGESELLSCHAFT, priority 2014, published 2017)

Tests used:
Phakopsora pachyrhizi = assay: in vivo preventive test on Phakopsora test (soybeans); conditions: single active compound
Text: (§1) A synergistic effect of fungicides is always present when the fungicidal activity of the active compound combinations exceeds the total of the activities of the active compounds when applied individually. The expected activity for a given combination of two active compounds can be calculated as follows (cf. Colby, S. R., “Calculating Synergistic and Antagonistic Responses of Herbicide Combinations”, Weeds 1967, 15, 20-22):
(§2) • X is the efficacy when active compound A is applied at an application rate of m ppm (or g/ha), • Y is the efficacy when active compound B is applied at an application rate of n ppm (or g/ha), • E is the efficacy when the active compounds A and B are applied at application rates of m and n ppm (or g/ha), respectively, and then
(§3) The degree of efficacy, expressed in % is denoted. 0% means an efficacy which corresponds to that of the control while an efficacy of 100% means that no disease is observed.
Example: In Vivo Preventive Test on Phakopsora Test (Soybeans)
(§4) • Solvent: 24.5 parts by weight of acetone • 24.5 parts by weight of dimethylacetamide • Emulsifier: 1 part by weight of alkylaryl polyglycol ether
(§5) To produce a suitable preparation of active compound, 1 part by weight of active compound is mixed with the stated amounts of solvent and emulsifier, and the concentrate is diluted with water to the desired concentration.
(§6) To test for preventive activity, young plants are sprayed with the preparation of active compound at the stated rate of application. After the spray coating has dried on, the plants are inoculated with an aqueous spore suspension of the causal agent of soybean rust (Phakopsora pachyrhizi) and stay for 24 h without light in an incubation cabinet at approximately 24° C. and a relative atmospheric humidity of 95%.
The plants remain in the incubation cabinet at approximately 24° C. and a relative atmospheric humidity of approximately 80% and a day/night interval of 12 h.
The test is evaluated 7 days after the inoculation. 0% means an efficacy which corresponds to that of the untreated control, while an efficacy of 100% means that no disease is observed.

Venturia inaequalis = assay: in vivo preventive test on Venturia test (apples); conditions: single active compound
Text: as §1, §2, §3
Example: In Vivo Preventive Test on Venturia Test (Apples)
as §4, §5
as §6, with “conidia” for “spore”, “apple scab (Venturia inaequalis)” for “soybean rust (Phakopsora pachyrhizi)”, “then remain” for “stay”, “1 day” for “24 h without light”, “20°” for “24°”, “100%.” for “95%.”
The plants are then placed in a greenhouse at approximately 21° C. and a relative atmospheric humidity of approximately 90%.
(§7) The test is evaluated 10 days after the inoculation. 0% means an efficacy which corresponds to that of the untreated control, while an efficacy of 100% means that no disease is observed.

Botrytis cinerea = assay: in vivo preventive test on Botrytis test (beans); conditions: single active compound, the 3rd table
Text: as §1, §2, §3
Example: In Vivo Preventive Test on Botrytis Test (Beans)
as §4, §5
To test for preventive activity, young plants are sprayed with the preparation of active compound. After the spray coating has dried on, 2 small pieces of agar covered with growth of Botrytis cinerea are placed on each leaf. The inoculated plants are placed in a darkened chamber at 20° C. and a relative atmospheric humidity of 100%.
2 days after the inoculation, the size of the lesions on the leaves is evaluated. 0% means an efficacy which corresponds to that of the untreated control, while an efficacy of 100% means that no disease is observed.

Uromyces appendiculatus = assay: in vivo preventive test on Uromyces test (beans); conditions: single active compound, the 7th table
Text: as §1, §2, §3
Example: In Vivo Preventive Test on Uromyces Test (Beans)
as §4
To produce a suitable preparation of active compound, 1 part by weight of active compound is mixed with the stated amounts of solvent and emulsifier, and the concentrate is diluted with water to the desired concentration. To test for preventive activity, young plants are sprayed with the preparation of active compound at the stated rate of application. After the spray coating has dried on, the plants are inoculated with an aqueous spore suspension of the causal agent of bean rust (Uromyces appendiculatus) and then remain for 1 day in an incubation cabinet at approximately 20° C. and a relative atmospheric humidity of 100%. The plants are then placed in a greenhouse at approximately 21° C. and a relative atmospheric humidity of approximately 90%.
as §7

Alternaria solani = assay: in vivo preventive test on Alternaria test (tomatoes); conditions: single active compound
Text: as §1, §2, §3
Example: In Vivo Preventive Test on Alternaria Test (Tomatoes)
as §4, §5
as §6, with “Alternaria solani. The plants are then placed” for “the causal agent of soybean rust (Phakopsora pachyrhizi) and stay for 24 h without light”, “20°” for “24°”, “100%.” for “95%.”
The test is evaluated 3 days after the inoculation. 0% means an efficacy which corresponds to that of the untreated control while an efficacy of 100% means that no disease is observed.

CC[C@@H]1CC(C)(C)c2cccc(NC(=O)c3cccnc3C(F)F)c21 [(I-4), 2-(difluoromethyl)-N-[(3R)-3-ethyl-1,1-dimethyl-2,3-dihydro-1H-inden-4-yl]nicotinamide]
Efficacy in % found (Phakopsora pachyrhizi; 0.5 ppm a.i., the 4th table): 87% | Efficacy in % found (Phakopsora pachyrhizi; 1 ppm a.i., the 4th table): 87% | Efficacy in % found (Venturia inaequalis; 0.25 ppm a.i., the 8th table): 10% | Efficacy in % found (Venturia inaequalis; 1 ppm a.i., the 10th table): 37% | Efficacy in % found (Botrytis cinerea; 0.5 ppm a.i.): 15%

CCCC1CC(C)(C)c2cccc(NC(=O)c3cccnc3C(F)F)c21 (stereo not drawn) [(I-5), 2-(difluoromethyl)-N-(1,1-dimethyl-3-propyl-2,3-dihydro-1H-inden-4-yl)nicotinamide]
Efficacy in % found (Venturia inaequalis; 1 ppm a.i., the 10th table): 10% | Efficacy in % found (Uromyces appendiculatus; 0.25 ppm a.i.): 93%

CCC[C@@H]1CC(C)(C)c2cccc(NC(=O)c3cccnc3C(F)F)c21 [(I-6), 2-(difluoromethyl)-N-[(3R)-1,1-dimethyl-3-propyl-2,3-dihydro-1H-inden-4-yl]nicotinamide]
Efficacy in % found (Phakopsora pachyrhizi; 0.25 ppm a.i., the 5th table): 95% | Efficacy in % found (Phakopsora pachyrhizi; 1 ppm a.i., the 5th table): 93% | Efficacy in % found (Alternaria solani; 0.5 ppm a.i., the 1st table): 30%

CON=C(C(=O)OC)c1ccccc1CON=C(C)c1cccc(C(F)(F)F)c1 [1.22, trifloxystrobin]
Efficacy in % found (Phakopsora pachyrhizi; 0.25 ppm a.i., the 6th table): 0% | Efficacy in % found (Phakopsora pachyrhizi; 0.5 ppm a.i., the 6th table): 0% | Efficacy in % found (Phakopsora pachyrhizi; 1 ppm a.i., the 6th table): 0% | Efficacy in % found (Venturia inaequalis; 0.25 ppm a.i., the 10th table): 0% | Efficacy in % found (Venturia inaequalis; 0.5 ppm a.i., the 10th table): 5% | Efficacy in % found (Venturia inaequalis; 1 ppm a.i., the 10th table): 5% | Efficacy in % found (Alternaria solani; 0.25 ppm a.i., the 1st table): 8% | Efficacy in % found (Alternaria solani; 0.5 ppm a.i., the 1st table): 24% | Efficacy in % found (Alternaria solani; 1 ppm a.i., the 1st table): 35% | Efficacy in % found (Uromyces appendiculatus; 0.25 ppm a.i.): 0% | Efficacy in % found (Uromyces appendiculatus; 1 ppm a.i.): 0%

CCC1CC(C)(C)c2cccc(NC(=O)c3cccnc3C(F)F)c21 (stereo not drawn) [(I-3), 2-(difluoromethyl)-N-(3-ethyl-1,1-dimethyl-2,3-dihydro-1H-inden-4-yl)nicotinamide]
Efficacy in % found (Phakopsora pachyrhizi; 0.5 ppm a.i., the 6th table): 28% | Efficacy in % found (Phakopsora pachyrhizi; 1 ppm a.i., the 6th table): 38% | Efficacy in % found (Venturia inaequalis; 0.25 ppm a.i., the 8th table): 10% | Efficacy in % found (Venturia inaequalis; 1 ppm a.i., the 8th table): 13% | Efficacy in % found (Venturia inaequalis; 1 ppm a.i., the 10th table): 15%

CO/C=C(/C(=O)OC)c1ccccc1COc1cccc(C(F)(F)F)n1 [1.16, picoxystrobin]
Efficacy in % found (Phakopsora pachyrhizi; 0.25 ppm a.i., the 4th table): 0% | Efficacy in % found (Phakopsora pachyrhizi; 0.25 ppm a.i., the 5th table): 0% | Efficacy in % found (Phakopsora pachyrhizi; 0.5 ppm a.i., the 4th table): 24% | Efficacy in % found (Phakopsora pachyrhizi; 0.5 ppm a.i., the 5th table): 0% | Efficacy in % found (Phakopsora pachyrhizi; 1 ppm a.i., the 4th table): 9% | Efficacy in % found (Phakopsora pachyrhizi; 1 ppm a.i., the 5th table): 62% | Efficacy in % found (Venturia inaequalis; 0.5 ppm a.i., the 9th table): 13% | Efficacy in % found (Alternaria solani; 0.25 ppm a.i., the 1st table): 30% | Efficacy in % found (Alternaria solani; 0.25 ppm a.i., the 2nd table): 8% | Efficacy in % found (Alternaria solani; 0.5 ppm a.i., the 1st table): 30% | Efficacy in % found (Alternaria solani; 0.5 ppm a.i., the 2nd table): 8% | Efficacy in % found (Alternaria solani; 1 ppm a.i., the 1st table): 50% | Efficacy in % found (Alternaria solani; 1 ppm a.i., the 2nd table): 35% | Efficacy in % found (Botrytis cinerea; 0.25 ppm a.i.): 40% | Efficacy in % found (Botrytis cinerea; 0.5 ppm a.i.): 40%

CO/C=C(/C(=O)OC)c1ccccc1Oc1cc(Oc2ccccc2C#N)ncn1 [1.3, azoxystrobin]
Efficacy in % found (Phakopsora pachyrhizi; 0.25 ppm a.i., the 4th table): 0% | Efficacy in % found (Phakopsora pachyrhizi; 0.25 ppm a.i., the 5th table): 16% | Efficacy in % found (Phakopsora pachyrhizi; 0.5 ppm a.i., the 4th table): 18% | Efficacy in % found (Phakopsora pachyrhizi; 0.5 ppm a.i., the 5th table): 41% | Efficacy in % found (Venturia inaequalis; 0.5 ppm a.i., the 8th table): 25% | Efficacy in % found (Venturia inaequalis; 0.5 ppm a.i., the 9th table): 88% | Efficacy in % found (Venturia inaequalis; 1 ppm a.i., the 8th table): 30% | Efficacy in % found (Venturia inaequalis; 1 ppm a.i., the 9th table): 94% | Efficacy in % found (Alternaria solani; 0.25 ppm a.i., the 1st table): 45% | Efficacy in % found (Alternaria solani; 0.25 ppm a.i., the 2nd table): 35% | Efficacy in % found (Alternaria solani; 0.5 ppm a.i., the 1st table): 35% | Efficacy in % found (Alternaria solani; 0.5 ppm a.i., the 2nd table): 8% | Efficacy in % found (Alternaria solani; 1 ppm a.i., the 1st table): 65% | Efficacy in % found (Alternaria solani; 1 ppm a.i., the 2nd table): 15% | Efficacy in % found (Botrytis cinerea; 0.25 ppm a.i.): 30% | Efficacy in % found (Botrytis cinerea; 0.5 ppm a.i.): 15%
